Experimental data published in patent US20080108665A1, “Use of N-substituted sulfoximines for control of invertebrate pests” (priority 2006, published 2008).

Legend:
Format in all cases: in vivo
[1] = tested on: Brown Planthopper (Nilaparvata lugens); assay: Brown planthopper root uptake assay on rice; settings: 6-day observation
Method: These assays were designed to evaluate the possibility of using compounds of the invention for applications such as nursing trays, transplanting water and/or irrigation. Root-uptake systemic assays were performed on both brown planthopper and green leafhopper. Four-week-old rice seedlings were submerged in 3-cm depth of water in the bottom portion (high 5 cm, diameter 3 cm) of a 2-part glass cylinder (high 18 cm, diameter 3 cm). A metal screen was used to hold the seedlings within the bottom portion. Scotch tape was used to bind the two portions of the cylinder after setting up the seedlings. A metal cap was used to cover the cylinder. There were 4 cylinders for each treatment. The test compound was dissolved in acetone to make a 10,000 ppm stock solution which was incorporated at final test concentrations of 5, 2, 1, 0.5, 0.25 ppm in the water in which rice seedlings were submerged. Five laboratory-reared 3rd instar nymphs of brown planthopper or green leafhopper were introduced into each cylinder 3 hr after insecticide application. The treated test units were kept in a growth chamber with conditions set as followings: Temperature 28±0.5° C.; Relative humidity 70±0.5%; Photoperiod 14 hr light: […].

[2] = tested on: Cotton Aphid (Aphis gossypii); assay: Cotton aphid seed coating assay on squash; settings: for % Control, seed coating systemic: 1st leaf infested 13 days after planting
Method: Selected compounds of the invention were tested in assays designed to evaluate its systemic activity for control of cotton aphid through seed-coating prior to planting. The crop used in these assays was a hybrid squash (var. Pic-N-Pic). Test compound was formulated in a 10% SC formulation. Ten squash seeds were used for each treatment. Seeds were placed on waxed paper and a pipette was used to apply the original or diluted formulations to each seed. The air-dried, treated seeds were individually planted into 3 inch pots containing metro mix. The pots were placed on a California cart and moved into the greenhouse for sub watering only. At the specified number of days after planting, the plants were infested with approximately 40 wingless aphids. The infested plants were kept in an environmental holding room (23° C., 40% RH, 16 hr light: 8 hr dark) for three days before the number of live aphids was counted under a microscope. Calculations for % Control were based on a corrected basis compared to the populations on the reference plants germinated from seeds treated with the formulation blank.
Corrected % Control=100*(X−Y)/X • where X=No. of live aphids on reference plants • Y=No. of live aphids on treated plants Assay 1. Compounds (1) and (2) were tested at 3 mg/seed. The original 10% SC formulation was used. One half (15 ul) of the sample was spread onto one side of a seed. Once dried (approximately 1 hr), the seed was flipped over and the 2nd half of sample was spread over the other side. Fourteen and 25 days after planting, aphid infestations were conducted on the 1st and 2nd true leaves, respectively.
Assay 2. Compound (2) was tested at 0.1 and 1 mg/seed. For the 1 mg/seed treatment, the original 10% formulation was used. For the 0.1 mg/seed treatment, the 10% formulation were diluted 10× with DI water before application. One half (5 ul) of the sample was spread onto one side of a seed. Once dried (approximately 1 hr), the seed was flipped over and the 2nd half of sample was spread over the other side. Thirteen days after planting, the 1st leaf was infested.

[3] = tested on: Eastern Subterranean Termite (Reticulitermes flavipes); assay: Eastern subterranean termite filter paper assay
Method: Activity of Compound (2) was evaluated for its activity on Eastern subterranean termite. Technical material of the test compound was formulated in acetone on a wt/wt basis to deliver 1000, 500, 200, 50, 12.5, 3.12 and 0.78 ppm to 42.5 mm Whatman No. 1 filter papers per 200 ul of pipetted solution. Each test concentration was applied to six filter papers (6 reps). Six acetone-only control units and six DI water-only control units were also prepared. The filter papers were dried overnight in the fume hood before they were placed into 60×15 mm Fisher Brand plastic Petri dishes. A volume of 200 ul DI water was pipetted onto each Filter paper at the time of test set-up, just prior to infesting with termites. Ten worker termites were added to each Petri dish and covered. The infested Petri dishes were put in the laboratory Conviron at 28° C. and 60% RH. Termite mortality was recorded at 1, 2, 4, 7, and 10 days after infestation (DAI). Throughout the duration of the test, an average of 150 ul of DI water was added daily to the filter papers to retain moisture.

[4] = 3 mg/seed, 10% SC formulation, counted 3 days after infestation

CC(c1ccc(Cl)nc1)S(C)(=O)=NC#N (centres unmarked) [Compound 2, [1-(6-chloropyridin-3-yl)ethyl](methyl)oxido-λ^4-sulfanylidenecyanamide]
% Control, root uptake systemic Brown planthopper ([1]; 0.25 ppm in water): 55% | % Control, root uptake systemic Brown planthopper ([1]; 0.50 ppm in water): 80% | % Control, root uptake systemic Brown planthopper ([1]; 1.00 ppm in water): 100% | % Control, root uptake systemic Brown planthopper ([1]; 2.00 ppm in water): 100% | % Control, root uptake systemic Brown planthopper ([1]; 5.00 ppm in water): 100% | % Control, seed coating systemic ([2]; 0.1 mg/seed): 36.5% | % Control, seed coating systemic ([2]; 1 mg/seed): 99.8% | % Control, seed coating systemic 1st leaf, 14 days after planting [2, 4]: 100% | % Control, seed coating systemic 2nd leaf, 25 days after planting [2, 4]: 99.8% | mortality at 0.78 ppm ([3]; 1 DAI): 0% | mortality at 0.78 ppm ([3]; 2 DAI): 2% | mortality at 0.78 ppm ([3]; 4 DAI): 2% | mortality at 0.78 ppm ([3]; 7 DAI): 7% | mortality at 0.78 ppm ([3]; 10 DAI): 10% | mortality at 3.13 ppm ([3]; 1 DAI): 0% | mortality at 3.13 ppm ([3]; 2 DAI): 3% | mortality at 3.13 ppm ([3]; 4 DAI): 43% | mortality at 3.13 ppm ([3]; 7 DAI): 60% | mortality at 3.13 ppm ([3]; 10 DAI): 60% | mortality at 12.5 ppm ([3]; 1 DAI): 15% | mortality at 12.5 ppm ([3]; 2 DAI): 32% | mortality at 12.5 ppm ([3]; 4 DAI): 60% | mortality at 12.5 ppm ([3]; 7 DAI): 63% | mortality at 12.5 ppm ([3]; 10 DAI): 63% | mortality at 50 ppm ([3]; 1 DAI): 15% | mortality at 50 ppm ([3]; 2 DAI): 27% | mortality at 50 ppm ([3]; 4 DAI): 67% | mortality at 50 ppm ([3]; 7 DAI): 92% | mortality at 50 ppm ([3]; 10 DAI): 93% | mortality at 200 ppm ([3]; 1 DAI): 37% | mortality at 200 ppm ([3]; 2 DAI): 58% | mortality at 200 ppm ([3]; 4 DAI): 87% | mortality at 200 ppm ([3]; 7 DAI): 97% | mortality at 200 ppm ([3]; 10 DAI): 100% | mortality at 500 ppm ([3]; 1 DAI): 38% | mortality at 500 ppm ([3]; 2 DAI): 60% | mortality at 500 ppm ([3]; 4 DAI): 93% | mortality at 500 ppm ([3]; 7 DAI): 100% | mortality at 500 ppm ([3]; 10 DAI): 100% | mortality at 1000 ppm ([3]; 1 DAI): 47% | mortality at 1000 ppm ([3]; 2 DAI): 68% | mortality at 1000 ppm ([3]; 4 DAI): 92% | mortality at 1000 ppm ([3]; 7 DAI): 100% | mortality at 1000 ppm ([3]; 10 DAI): 100%
